In the NIST ThermoML archive (doi:10.1021/je9005618):
± gives the expanded uncertainty stated by the source.

Experiment: refractive index (Na D-line) (dimensionless); xn = mol fraction of the nth substance listed
Conditions: 101 kPa, Liquid

CCn1cc[n+](C)c1.O=S(=O)([O-])C(F)(F)F [1-ethyl-3-methylimidazolium trifluoromethanesulfonate] + CC(C)=O
refractive index
Conditions | 288.15 K | 298.15 K | 308.15 K | 318.15 K
x1 = 0.04957 | 1.37495 ± 0.0013 | 1.36994 ± 0.0013 | 1.36575 ± 0.0013 | 1.36218 ± 0.0013
x1 = 0.1005 | 1.38499 ± 0.0013 | 1.38033 ± 0.0013 | 1.37615 ± 0.0013 | 1.37308 ± 0.0013
x1 = 0.1503 | 1.39293 ± 0.0013 | 1.38854 ± 0.0013 | 1.38475 ± 0.0013 | 1.38186 ± 0.0013
x1 = 0.2007 | 1.39936 ± 0.0013 | 1.39527 ± 0.0013 | 1.39155 ± 0.0013 | 1.38862 ± 0.0013
x1 = 0.2995 | 1.40865 ± 0.0013 | 1.40492 ± 0.0013 | 1.40133 ± 0.0013 | 1.39777 ± 0.0013
x1 = 0.3973 | 1.41585 ± 0.0013 | 1.41237 ± 0.0013 | 1.409 ± 0.0013 | 1.40574 ± 0.0013
x1 = 0.5018 | 1.42117 ± 0.0013 | 1.41787 ± 0.0013 | 1.41464 ± 0.0013 | 1.41148 ± 0.0013
x1 = 0.5996 | 1.42541 ± 0.0013 | 1.42225 ± 0.0013 | 1.41908 ± 0.0013 | 1.41604 ± 0.0013
x1 = 0.6973 | 1.42854 ± 0.0013 | 1.42549 ± 0.0013 | 1.4225 ± 0.0013 | 1.41953 ± 0.0013
x1 = 0.7733 | 1.43087 ± 0.0013 | 1.42786 ± 0.0013 | 1.4249 ± 0.0013 | 1.42199 ± 0.0013
x1 = 0.8452 | 1.43253 ± 0.0013 | 1.42963 ± 0.0013 | 1.42676 ± 0.0013 | 1.42392 ± 0.0013
x1 = 0.8988 | 1.43368 ± 0.0013 | 1.43085 ± 0.0013 | 1.42803 ± 0.0013 | 1.42518 ± 0.0013
x1 = 0.9559 | 1.43487 ± 0.0013 | 1.43207 ± 0.0013 | 1.42925 ± 0.0013 | 1.4265 ± 0.0013

CCn1cc[n+](C)c1.O=S(=O)([O-])C(F)(F)F [1-ethyl-3-methylimidazolium trifluoromethanesulfonate] + CCOC(C)=O
refractive index
Conditions | 288.15 K | 298.15 K | 308.15 K | 318.15 K | 328.15 K
x1 = 0.04887 | 1.38327 ± 0.0013 | 1.37802 ± 0.0013 | 1.37297 ± 0.0013 | 1.3691 ± 0.0013 | 1.3631 ± 0.0013
x1 = 0.1503 | 1.39622 ± 0.0013 | 1.39151 ± 0.0013 | 1.3881 ± 0.0013 | 1.38476 ± 0.0013 | 1.38129 ± 0.0013
x1 = 0.2004 | 1.40093 ± 0.0013 | 1.39666 ± 0.0013 | 1.3944 ± 0.0013 | 1.3917 ± 0.0013 | 1.38772 ± 0.0013
x1 = 0.2998 | 1.40907 ± 0.0013 | 1.40499 ± 0.0013 | 1.40234 ± 0.0013 | 1.39937 ± 0.0013 | 1.39558 ± 0.0013
x1 = 0.399 | 1.41507 ± 0.0013 | 1.41144 ± 0.0013 | 1.40854 ± 0.0013 | 1.40604 ± 0.0013 | 1.4031 ± 0.0013
x1 = 0.5006 | 1.42038 ± 0.0013 | 1.41682 ± 0.0013 | 1.41415 ± 0.0013 | 1.41137 ± 0.0013 | 1.40906 ± 0.0013
x1 = 0.5977 | 1.42469 ± 0.0013 | 1.42133 ± 0.0013 | 1.4186 ± 0.0013 | 1.41549 ± 0.0013 | 1.41251 ± 0.0013
x1 = 0.6974 | 1.42874 ± 0.0013 | 1.42566 ± 0.0013 | 1.42254 ± 0.0013 | 1.41963 ± 0.0013 | 1.41671 ± 0.0013
x1 = 0.7962 | 1.43118 ± 0.0013 | 1.42823 ± 0.0013 | 1.42528 ± 0.0013 | 1.42239 ± 0.0013 | 1.41954 ± 0.0013
x1 = 0.8474 | 1.43242 ± 0.0013 | 1.4295 ± 0.0013 | 1.42662 ± 0.0013 | 1.42376 ± 0.0013 | 1.42094 ± 0.0013
x1 = 0.9011 | 1.43367 ± 0.0013 | 1.43075 ± 0.0013 | 1.42792 ± 0.0013 | 1.42471 ± 0.0013 | 1.42195 ± 0.0013
x1 = 0.9491 | 1.43467 ± 0.0013 | 1.43182 ± 0.0013 | 1.42903 ± 0.0013 | 1.42624 ± 0.0013 | 1.42352 ± 0.0013

CCn1cc[n+](C)c1.O=S(=O)([O-])C(F)(F)F [1-ethyl-3-methylimidazolium trifluoromethanesulfonate] + COC(C)=O
refractive index
Conditions | 288.15 K | 298.15 K | 308.15 K | 318.15 K
x1 = 0.05083 | 1.37625 ± 0.0013 | 1.37116 ± 0.0013 | 1.3671 ± 0.0013 | 1.36334 ± 0.0013
x1 = 0.09991 | 1.38561 ± 0.0013 | 1.38057 ± 0.0013 | 1.37793 ± 0.0013 | 1.37521 ± 0.0013
x1 = 0.1515 | 1.39328 ± 0.0013 | 1.38873 ± 0.0013 | 1.38548 ± 0.0013 | 1.38291 ± 0.0013
x1 = 0.1998 | 1.39836 ± 0.0013 | 1.39419 ± 0.0013 | 1.39098 ± 0.0013 | 1.38871 ± 0.0013
x1 = 0.2997 | 1.40796 ± 0.0013 | 1.40429 ± 0.0013 | 1.40087 ± 0.0013 | 1.39857 ± 0.0013
x1 = 0.4003 | 1.41462 ± 0.0013 | 1.4112 ± 0.0013 | 1.40804 ± 0.0013 | 1.40487 ± 0.0013
x1 = 0.4958 | 1.42026 ± 0.0013 | 1.41695 ± 0.0013 | 1.41367 ± 0.0013 | 1.41049 ± 0.0013
x1 = 0.595 | 1.42444 ± 0.0013 | 1.42123 ± 0.0013 | 1.41831 ± 0.0013 | 1.41533 ± 0.0013
x1 = 0.6962 | 1.42797 ± 0.0013 | 1.42488 ± 0.0013 | 1.42201 ± 0.0013 | 1.41907 ± 0.0013
x1 = 0.7954 | 1.43089 ± 0.0013 | 1.42794 ± 0.0013 | 1.4251 ± 0.0013 | 1.42226 ± 0.0013
x1 = 0.8385 | 1.43234 ± 0.0013 | 1.42944 ± 0.0013 | 1.42649 ± 0.0013 | 1.42364 ± 0.0013
x1 = 0.8977 | 1.43347 ± 0.0013 | 1.43061 ± 0.0013 | 1.42771 ± 0.0013 | 1.42488 ± 0.0013
x1 = 0.9466 | 1.43451 ± 0.0013 | 1.4317 ± 0.0013 | 1.4289 ± 0.0013 | 1.42618 ± 0.0013
